From patent US20250108141A1, “TOPICAL FORMULATIONS FOR TARGETED DELIVERY OF THERAPEUTICS” (UNM RAINFOREST INNOVATIONS, priority 2023, published 2025)
Entries after “also recorded” stand apart in the source; their conditions may differ.

Tests used:
[1] = system: HPV16-infected SG3 cells; assay: MK-8353 treatment of HPV16-infected SG3 cells, immunoblot; format: cell-based; conditions: MK-8353 dissolved in Tc, 48 h
Procedure: The p-ERK1/2 inhibitor MK-8353 (Selleck Chemicals LLC, Houston, TX) was dissolved in 2-(2-ethoxyethoxy)ethanol (Tc) at 5 mM. HPV16-infected SG3 cells were plated in complete medium and then treatments were initiated without active agent or with increasing concentrations of MK-8353 in serum-free medium. At 24 h post treatment, fresh treatments were added and maintained for an additional 24 h. Cells treated for 48 h were lysed with detergent-containing buffer and 50 μg of each sample was analyzed by SDS-PAGE and immunoblot for the proteins of interest including p-ERK1/2, p-Fra1, HPV16 E7, and actin.

[2] = system: MmuPV1; assay: MmuPV1-induced tail tumor (wart) model, oral gavage; format: in vivo; conditions: oral gavage every 48 hours for four weeks, cobimetinib 7.5 or 15 mg/kg, trametinib 1.0 or 2.0 mg/kg, athymic nude mice
Procedure: FIG. 3. […] Female Hsd:Athymic Nude-Foxn1^nu mice were infected with 2×10^8 viral genome equivalents (VGE) of MmuPV1 virions. Tumors (warts) were allowed to grow for 6 weeks before randomizing into vehicle or treatment groups (n=6 per group) with each group having an average tumor volume (length×width×height) of approximately 40 mm^3. Mice were dosed by oral gavage treatment every 48 hours for four weeks before harvesting each tumor for histology. (A) Quantification of tail tumor volumes over 32 days of treatment in mice infected with MmuPV1 and treated with vehicle, 7.5 mg/kg cobimetinib, or 15 mg/kg cobimetinib. (B) Quantification of tail tumor volume over 32 days of treatment in mice infected with MmuPV1 and treated with vehicle (same as in FIG. 3A), 1.0 mg/kg trametinib, or 2.0 mg/kg trametinib. Statistical analyses by two-way Anova, Dunnett's T3 test ([…], ** p<0.01). (C) Representative images of tail tumors of a mouse treated with vehicle only. (D) Representative images of tail tumors of a mouse treated with 7.5 mg/kg cobimetinib or 15 mg/kg cobimetinib. (E) Representative images of tail tumors of a mouse treated with 1.0 mg/kg trametinib or 2.0 mg/kg trametinib.

[3] = system: HPV16-infected SG3 human keratinocytes; assay: Topical treatment of HPV16-infected 3D organotypic epithelial raft tissues; format: cell-based
Procedure: FIG. 6. […] HPV16-infected (SG3) cells were cultured as raft tissues for 12 days. Duplicate raft tissues were left untreated, or topically treated with 0.5 ml of either vehicle gel (20% Tc, 2.5% HPC in PBS) alone or 30 μM trametinib in vehicle gel for 48 hours. One raft from each duplicate set was collected for total protein extraction for SDS-PAGE and immunoblots (A), the second raft was harvested for tissue fixation, paraffin embedding, and cross-sectioning of tissues for histology (B-J). […] Panels B-D show histology by H&E staining in untreated, vehicle-treated, and 30 μM trametinib-treated rafts. […] Broken lines underscore the basal cell layer.
FIG. 18. Experiment akin to that in FIG. 6, except that it uses 2.5% HPC and 10% Tc for the vehicle. Drug treatment includes 15 μM trametinib. Experimental groups were treated with the topical formulations for 24 hours or 48 hours before harvesting for immunoblots and tissue sectioning.
The experimental protocol used in this example is illustrated in FIG. 5. A semi-solid collagen-fibroblast matrix was created to act as a dermal equivalent (stage 1). HPV16-infected SG3 human keratinocytes (cells) that maintained circular HPV16 genomes extrachromosomally were seeded on the top of the dermal equivalent submerged in growth medium (stage 2). After the HPV-infected keratinocytes grew to confluency (2-3 days), growth medium was removed, and the dermal equivalent was lifted to the air-liquid interface above fresh growth medium (stage 3). Fresh medium was replaced every two days. This allowed the keratinocytes to stratify and differentiate into a multilayered epithelium akin to human skin/mucosa within 10-12 days (Stage 4).
The MEK1/2 inhibitor trametinib was dissolved in diethylene glycol monoethyl ether (TRANSCUTOL; Gattefosse SAS, Saint-Priest, France). The trametinib-2-(2-ethoxyethoxy)ethanol solution was combined with hydroxypropyl cellulose (KLUCEL MXF Pharma, 850 kDa), a pharmaceutical grade thermal gelation agent. Formulations of 30 μM trametinib, 20% 2-(2-ethoxyethoxy)ethanol, and 2.5% hydroxypropyl cellulose applied one time to stratified and differentiated HPV16-infected three-dimensional organotypic epithelial “raft” tissues cultured at the air-liquid interface for 12 days. Each treatment was carried out in duplicate. Tissues were harvested daily two to five days post treatment for total protein extraction and histological analyses (FIG. 6). Specifically, each raft tissue was divided in half with a scalpel. One half was subject to total protein extraction, SDS-PAGE and immunoblot; the second half was fixed in 10% neutral buffered formalin, embedded in paraffin, and sectioned ([…]) on to microscope slides. The tissue sections were subject to histology, immunohistochemistry, or in situ hybridization.
Formulations according to TABLE 2 were prepared. Epithelial raft tissues were prepared as described in Example 1. Each formulation was topically applied to duplicate HPV-infected raft epithelial tissues.
Each formulation was left on the tissue raft undisturbed for 48 hours. 48 hours after treatment, tissues were harvested for protein extraction and histological analysis as described above.
In Example 3, epithelial raft tissues were topically treated in duplicate with formulations including trametinib and 2-(2-ethoxyethoxy)ethanol and analyzed for p-ERK1/2 and E7 protein expression after three days (72 hours). Epithelial raft tissues were prepared as described in Example 1. Formulations were prepared according to TABLE 2. Each epithelial raft tissue was topically treated with one formulation. 72 hours after treatment, epithelial raft tissues were collected for protein extraction.

[4] = system: HPV16-infected SG3 human keratinocytes; assay: as above; format: cell-based; conditions: TABLE 2 formulations, single topical treatment, 96 hours
[5] = system: HPV16-infected cells established from cervix (W12-E); assay: HPV16-infected W12-E 3D organotypic raft tissue, trametinib added systemically; format: cell-based; conditions: 10 nM trametinib added systemically every 48 hours on days 8, 10, 12
Procedure: FIG. 2. Histology data showing that HPV16 oncogene transcription and activity is modulated by MEK1/2 activation in 3D organotypic epithelial tissue cultures. HPV16-infected cells established from cervix (W12-E) were cultured as raft tissues for 14 days. Panels A-D are taken from tissues cultured under normal conditions. Panels E-H are images of tissue cultured with 10 ng/mL EGF added systemically (in the cell culture medium below the basal layer and collagen matrix) every 48 hours on days 8, 10, and 12 post raft tissue lifting to the air-liquid interface. Panels I-L are images of tissues cultured with 10 nM trametinib added systemically every 48-hours on days 8, 10, and 12 post raft tissue lifting to the air-liquid interface. Tissues were examined for morphology (Top, H&E staining), phosphorylated ERK1/2 (p-ERK1/2) immunohistochemistry (brown), HPV E6&E7 mRNA in situ hybridization (red), and E7 activity via proxy p16INK4A immunohistochemistry. Broken lines underscore the basal cell layer above the collagen matrix; bars=100 μm.

[6] = system: MmuPV1; assay: Topical gel treatment of MmuPV1-induced tumors in vivo; parameters: species or system mice; conditions: daily topical gel (2.5% HPC, 15%-18% TRANSCUTOL) with trametinib 150 μM-600 μM; starting tumors 145.3 mm^3 to 279.4 mm^3
Procedure: Mice bearing MmuPV1-induced tumors ranging in volume from 145.3 mm^3 to 279.4 mm^3 were treated daily with a topical gel (2.5% HPC, 15%-18% TRANSCUTOL (Gattefosse SAS, Saint-Priest, France)) containing the MEK inhibitor trametinib (150 μM-600 μM).

[7] = increasing concentrations in serum-free medium
[8] = 15 μM trametinib in 2.5% HPC and 10% Tc vehicle, 24 hours or 48 hours
[9] = TABLE 2 formulations, 30 μM trametinib, single topical treatment, 48 hours

CS[C@@]1(C(=O)Nc2ccc3[nH]nc(-c4ccc(OC(C)C)nc4)c3c2)CCN(CC(=O)N2CC=C(c3ccc(-c4ncn(C)n4)cc3)CC2)C1 [MK-8353]
phosphorylation of ERK1/2 (p-ERK1/2) [1]: does not necessarily prevent | levels of the HPV16 E7 oncoprotein [1, 7]: reduce the levels | p-ERK1/2 activity as measured by p-Fra1 phosphorylation [1, 7]: Suppresses

O=C(c1ccc(F)c(F)c1Nc1ccc(I)cc1F)N1CC(O)([C@@H]2CCCCN2)C1 [cobimetinib, (S)-[3,4-Difluoro-2-(2-fluoro-4-iodophenylamino)phenyl][3-hydroxy-3-(piperidin-2-yl)azetidine-1-yl]methanone]
tail tumor (wart) volume [2]: suppresses MmuPV1-induced benign tumor (e.g., wart) growth | tail tumor (wart) volume ([2]; listed as Cobimetinib): suppresses wart growth but did not lead to regression

CC(=O)Nc1cccc(-n2c(=O)n(C3CC3)c(=O)c3c(Nc4ccc(I)cc4F)n(C)c(=O)c(C)c32)c1 [trametinib, N-(3-{3-Cyclopropyl-5-[(2-fluoro-4-iodophenyl)amino]-6,8-dimethyl-2,4,7-trioxo-3,4,6,7-tetrahydropyrido[4,3-d]pyrimidin-1 (2H)-yl}phenyl)acetamide]
E6/E7 mRNA detection [3, 8]: reduced | p-ERK1/2 protein detection [3, 8]: reduced | p-ERK1/2 by immunoblot ([3]; 30 μM trametinib, 20% 2-(2-ethoxyethoxy)ethanol, 2.5% HPC gel, applied one time, two days (48 hours) post treatment): complete suppression; also recorded: reduction in p-ERK1/2 to almost undetectable levels | p-ERK1/2 suppression, later harvests ([3]; 30 μM trametinib, 20% Tc, 2.5% HPC gel, applied one time, three to five days post treatment): sustained | p-ERK1/2 by immunohistochemistry ([3]; 30 μM trametinib, 20% Tc, 2.5% HPC gel, 48 hours): abrogates | HPV16 E6/E7 mRNA by in situ hybridization ([3]; 30 μM trametinib, 20% Tc, 2.5% HPC gel, two days post treatment): complete suppression; also recorded: reduces E6/E7 mRNA to undetectable levels | HPV16 E7 protein by immunoblot [3, 9]: suppresses | p-ERK1/2 by immunoblot [3, 9]: suppresses | hyperplasia ([3]; one-time topical treatment, 30 μM trametinib, 20% Tc, 2.5% HPC): suppressed | E7 by immunoblot [4]: decrease | p-ERK1/2 by immunoblot [4]: decrease | E7 activity (E7 surrogate p16INK4A protein) [5]: suppresses | MEK activation (p-ERK1/2 immunohistochemistry) [5]: suppresses | production of E6/E7 mRNA (in situ hybridization) [5]: suppresses | hyperproliferation ([5]; raft tissues cultured 14 days): suppresses | MmuPV1 tumor volume [6]: promotes MmuPV1 tumor regression | tail tumor (wart) volume [2]: leads to tumor regression; also recorded: regression of warts to a smaller size than those originally treated
